Each structure is given as a SMILES string.

Data set [1] is described as follows: Surface pressure/area per molecule isotherms of monolayers on Langmuir-Pockels trough. The class given is physicochemical. Here is the method:
The surface pressure/area per molecule isotherm measurements were carried out on a Langmuir-Pockels trough, equipped with a Wilhelmy paper balance (accuracy 0.2 mN/m), at the air-water interface. The isotherms were measured at different subphase temperatures between 5° C. and 25° C. (FIG. 2).
Above 10 C, a plateau of a mixed expanded/condensed phase transition was observed. The appearance of the plateau is accompanied by a shift of the initial lift-off area per molecule to higher values. The plateau represents the first-order phase transition from a liquid-expanded (LE) to a liquid-condensed (LC) phase. The plateau is not fully horizontal, especially it becomes steeper as the temperature increases. The monolayers themselves are stable over the measurable range of surface pressures up to an instrument-based cut-off at 51 mN/m. From the onset of the plateau it is possible to determine the temperature-dependent main transition pressure Πt. For 1,3-diheptadecanamidopropan-2-yl (2-(trimethylammonio) ethyl) phosphate this dependence can be described by a linear function (FIG. 3). The experimental data only deviates from this linear function in close vicinity of the minimum transition temperature T0 below which the transition into a condensed phase directly starts from the gas-analog state (re-sublimation process). […]

Data set [2] is described as follows: Dynamic light scattering of liposomes (Delsa Nano C). The conditions noted are these: 25 ° C. The class given is physicochemical. As to the method:
The lipid concentration of the two formulations was determined using the phosphate test (Stalder and Zumbuehl. CHIMIA International Journal for Chemistry 2013, 67, 819-821). Size and size distribution of the liposomes were quantified by means of dynamic light scattering (DLS) using a Delsa Nano C (Beckman Coulter, USA). DLS measurements were performed at a temperature of 25° C., using two laser diodes working at a wavelength of 658 nm. The scattering angle was set to 165 degrees. Cryo-TEM images of Pad-PC-Pad liposomal suspension were taken by mounting the liposomal suspension on glow-discharged holey carbon grids, quickly frozen by a Cryoplunge CP3 system (Gatan, USA), and transferred to a JEM2200FS transmission electron microscope (JEOL, Japan) using a Gatan626 cryo-holder. Cryo-TEM micrographs were recorded at an acceleration voltage of 200 kV at a magnification of 20,000, 4-8 μm under-focus, and a dose of 10 electrons=Å^2, using a F416 CMOS detector (TVIPS, Germany).

For the compound `CCCCCCCCCCCCCCCCC(=O)NCC(CNC(=O)CCCCCCCCCCCCCCCC)OP(=O)([O-])OCC[N+](C)(C)C` [Rad-PC-Rad, 1,3-diheptadecanamidopropan-2-yl (2-(trimethylammonio)ethyl) phosphate], in data set [1] (air-water interface), the “minimum transition temperature T0 of monolayer” value came out at 11.2 °C. In addition, the “critical temperature of monolayers” value in data set [1] (extrapolation of ΔS to zero) is recorded as 306.3 K.
With `CCCCCCCCCCCCCCCC(=O)NCC(CNC(=O)CCCCCCCCCCCCCCC)OP(=O)([O-])OCC[N+](C)(C)C` [Pad-PC-Pad, 1,3-palmitoylamido-1,3-deoxy-sn-glycero-2-phosphatidylcholine], in data set [2], the “mean diameter (DLS)” value was 131.6+/−0.9 nm and the “polydispersity index (PDI)” value is reported as 0.103+/−0.009.

The record behind these values is patent US11904051B2, “Shear stress sensitive liposomes” (Universität Basel, priority 2018, dated 2024).
